Laboratory results from patent US8080580B2, “Dioxa-bicyclo[3.2.1]octane-2,3,4-triol derivatives” (Pfizer Inc., priority 2008, dated 2011).
Read-outs that look alike come from different tables or passages of the source.

What was measured:
Male Sprague Dawley rats = experiment: In-vivo assay: urinary glucose excretion in rats after oral gavage; details: rat, urine collected for 24 hours
Method: (§1) Examples 1A and 4A were tested in rats to assess inhibition of glucose transport via urinary glucose excretion. Male Sprague Dawley rats (˜300 g) were singly housed in metabolic cages for urine collection. Rats had access to standard laboratory chow and water ad libitum. Rats (n=2 to 5/group) received vehicle or compound by oral gavage. Dosing solutions were 0.03 mg/mL, 0.3 mg/mL, 0.9 mg/mL, 3 mg/mL, 9 mg/mL and 18 mg/mL for the 0.1 mg/kg, 1 mg/kg, 3 mg/kg, 10 mg/kg, 30 mg/kg and 60 mg/kg doses respectively. Dosing volume was 1 mL/300 g of body weight for all doses. […] The vehicle was 20% v/v PEG400 and 24% v/v hydroxypropyl beta cyclodextrin; HPBCD. Following oral administration, urine was collected for 24 hours. Glucose concentration was measured in urine by UV absorbance spectrophotometry at 340 nm using a Roche Hitachi 917 spectrophotometer (Diamond Diagnostics, Holliston, Mass.). The total amount of glucose excreted in the urine was calculated as the product of urine concentration and urine volume using the formula below: urinary glucose excreted (mg)/200 g body weight=urinary glucose concentration (mg/dL)×urine volume (dL)×200/rat body weight (g). […] Blood (0.1 mL) was collected from the PK satellite group animals at 1, 2, 4, 7, 24 hours postdose to obtain plasma and analyzed by LC-MS/MS.

[1] = PK satellite group of the in-vivo UGE assay (plasma by LC-MS/MS); details: male, Sprague Dawley, rat plasma, oral gavage; for Tmax: read-out: Mean PK Parameters (n = 2) tmax
Method: as §1, with “Male” for “Examples 1A and 4A were tested in rats to assess inhibition of glucose transport via urinary glucose excretion. Male”, “Rats had access to standard laboratory chow and water ad libitum.” left out

[2] = Pharmacokinetic testing in rats (IV or PO); type: in vivo; details: rat
Method: Examples 1A, 2A, 4A, 12A, and 14A were tested in rats to assess pharmacokinetic parameters including maximum concentration (Cmax), area under the plasma concentration time curve (AUC), clearance (CL), steady state volume of distribution (Vss), half life (t1/2), and bioavailability (F). Male Sprague Dawley rats (˜300 g) were used. Rats received compound by intravenous (IV) or oral gavage (PO) administration and the doses tested including vehicle to formulate dosing solutions are listed in Table 5.
Following IV or PO administration, 0.2 mL blood was sampled from the jugular vein at various timepoints (Table 5). Twenty microL aliquots of plasma samples and standards were subjected to protein precipitation with acetonitrile containing an internal standard. Samples were vortexed and centrifuged to obtain supernatant which was analyzed by LC-MS/MS. Analyst (Version 1.4.1) was used to measure peak areas and peak area ratios of analyte to internal standard were calculated. LC-MS/MS conditions are as follows: Mass Spectrometer+Source Type was Sciex API 4000−Turbo Spray; HPLC pump was Shimadzu; Autosampler was CTC PAL Autosampler; Injection volume was 3.0 to 10 microL; A gradient was used with mobile phase A: 10 mM ammonium acetate and 1% Isopropyl alcohol in water; B: Acetonitrile; Flowrate 0.300 mL per minute (Column 2.0×30 mm 5 microm LUNA C18 column (phenomenex)). Detection mode was negative.
A calibration curve was constructed from the peak area ratios of the standards to the internal standard by applying a weighted linear (1/x or 1/x2) regression. The dynamic range of the standard curve was 5.00 ng/mL to 5000 ng/mL.
Pharmacokinetic parameters were determined from individual animal data using non-compartmental analysis in Watson (version 7.2). Concentrations below the limit of quantitation (BLQ) were recorded as 0 ng/mL for use in calculations.
The following calculations were used: AUC(0−τ)=Determined using the linear trapezoidal method AUC(0−□)=AUC(0−τ) plus extrapolated area determined by dividing plasma concentration at τ by the slope of the terminal log-linear phase CL=Dose/AUC(0−∞) Vdss=CL×MRT Cmax=Recorded directly from plasma concentration time curve Tmax=Recorded directly from plasma concentration time curve t½=ln(0.5)/slope of the terminal log-linear phase F %=AUC(0−∞)PO per dose/AUC(0−∞)IV per dose C(0)=Extrapolated by linear regression from the apparent distribution phase following IV administration MRT=AUMC(AUC(0−∞)/AUC(0−∞)

[3] = male, Sprague Dawley, plasma, IV, 2 mg/kg
[4] = male, Sprague Dawley, plasma, PO, 10 mg/kg, PEG200/0.5% MC
[5] = male, Sprague Dawley, plasma, PO, 2 mg/kg, Tween 80/0.5% MC
[6] = male, Sprague Dawley, plasma, PO, 5 mg/kg, 20% PEG/24% HBCD

**Q.** Which results are given for `COc1ccc(Cc2cc([C@]34OC[C@](CO)(O3)[C@@H](O)[C@H](O)[C@H]4O)ccc2C)cc1` [Example 1A, (1S,2S,3S,4R,5S)-1-hydroxymethyl-5-[3-(4-methoxy-benzyl)-4-methyl-phenyl]-6,8-dioxa-bicyclo[3.2.1]octane-2,3,4-triol]?
**A.** Mean UGE (mg/200 g of body weight) ± SEM (n = 5) (Male Sprague Dawley rats; 10 mg/kg): 2049 ± 382.2 mg/200 g of body weight; AUC(0-t) ([1]; 10 mg/kg): 6630 ng·h/mL; Cmax ([1]; 10 mg/kg): 1260 ng/mL; Tmax ([1]; 10 mg/kg): 1 h; AUC(0-inf) [2, 3]: 947 ng·h/mL; AUC(0-inf) [2, 4]: 2680 ng·h/mL; Cmax [2, 4]: 1650 ng/mL; half-life [2, 4]: 2.82 h; CL ([2]; IV, 2 mg/kg): 37.1 mL/min/kg; Vss ([2]; IV, 2 mg/kg): 1.71 L/kg; t1/2 ([2]; IV, 2 mg/kg): 0.962 h; F ([2]; PO, 10 mg/kg, PEG200/0.5% MC): 56.5%

**Q.** For `CCOc1ccc(Cc2cc([C@]34OC[C@](CO)(O3)[C@@H](O)[C@H](O)[C@H]4O)ccc2Cl)cc1` [Example 4A, (1S,2S,3S,4R,5S)-5-[4-chloro-3-(4-ethoxy-benzyl)-phenyl]-1-hydroxymethyl-6,8-dioxa-bicyclo[3.2.1]octane-2,3,4-triol], which “Mean UGE (mg/200 g of body weight) ± SEM (n = 5)” value (Male Sprague Dawley rats; 0.1 mg/kg) is on record?
**A.** 389.0 ± 62.54 mg/200 g of body weight

**Q.** What about the “Mean UGE (mg/200 g of body weight) ± SEM (n = 5)” value (Male Sprague Dawley rats; 1 mg/kg) of the same molecule?
**A.** 1519 ± 52.02 mg/200 g of body weight

**Q.** What about the “Mean UGE (mg/200 g of body weight) ± SEM (n = 5)” value (Male Sprague Dawley rats; 3 mg/kg) of the same molecule?
**A.** 1937 ± 101.1 mg/200 g of body weight

**Q.** What about the “Mean UGE (mg/200 g of body weight) ± SEM (n = 5)” value (Male Sprague Dawley rats; 10 mg/kg) of the same molecule?
**A.** 2145 ± 132.3 mg/200 g of body weight

**Q.** And the “Mean UGE (mg/200 g of body weight) ± SEM (n = 5)” value (Male Sprague Dawley rats; 30 mg/kg)?
**A.** 2554 ± 141.1 mg/200 g of body weight

**Q.** What about the “Mean UGE (mg/200 g of body weight) ± SEM (n = 5)” value (Male Sprague Dawley rats; 60 mg/kg) of the same molecule?
**A.** 2437 ± 116.7 mg/200 g of body weight

**Q.** And the AUC(0-t) ([1]; 0.1 mg/kg)?
**A.** 188 ng·h/mL

**Q.** What about the Cmax ([1]; 0.1 mg/kg) of the same molecule?
**A.** 43.4 ng/mL

**Q.** What about the AUC(0-t) ([1]; 1 mg/kg) of the same molecule?
**A.** 2000 ng·h/mL

**Q.** And the Cmax ([1]; 1 mg/kg)?
**A.** 372 ng/mL

**Q.** What about the Tmax ([1]; 1 mg/kg) of the same molecule?
**A.** 1 h

**Q.** What about the AUC(0-t) ([1]; 3 mg/kg) of the same molecule?
**A.** 7080 ng·h/mL

**Q.** What about the Cmax ([1]; 3 mg/kg) of the same molecule?
**A.** 1320 ng/mL

**Q.** What about the Tmax ([1]; 3 mg/kg) of the same molecule?
**A.** 1 h

**Q.** And the AUC(0-t) ([1]; 10 mg/kg)?
**A.** 26400 ng·h/mL

**Q.** What about the Cmax ([1]; 10 mg/kg) of the same molecule?
**A.** 3100 ng/mL

**Q.** What about the Tmax ([1]; 10 mg/kg) of the same molecule?
**A.** 2.5 h

**Q.** And the AUC(0-t) ([1]; 30 mg/kg)?
**A.** 10700 ng·h/mL

**Q.** What about the Cmax ([1]; 30 mg/kg) of the same molecule?
**A.** 10500 ng/mL

**Q.** What about the Tmax ([1]; 30 mg/kg) of the same molecule?
**A.** 1 h

**Q.** What about the AUC(0-t) ([1]; 60 mg/kg) of the same molecule?
**A.** 233000 ng·h/mL

**Q.** And the Cmax ([1]; 60 mg/kg)?
**A.** 25300 ng/mL

**Q.** And the Tmax ([1]; 60 mg/kg)?
**A.** 2 h

**Q.** What about the AUC(0-inf) [2, 3] of the same molecule?
**A.** 8480 ng·h/mL

**Q.** And the Vd ([2]; male, Sprague Dawley, plasma, IV, 2 mg/kg, read-out: Vss)?
**A.** 1.1 L/kg

**Q.** And the AUC(0-inf) [2, 5]?
**A.** 5650 ng·h/mL

**Q.** And the Cmax [2, 5]?
**A.** 772 ng/mL

**Q.** And the half-life [2, 5]?
**A.** 3.7 h

**Q.** And the AUC(0-inf) [2, 6]?
**A.** 16800 ng·h/mL

**Q.** What about the Cmax [2, 6] of the same molecule?
**A.** 1190 ng/mL

**Q.** And the CL ([2]; IV, 2 mg/kg)?
**A.** 4.04 mL/min/kg

**Q.** And the t1/2 ([2]; IV, 2 mg/kg)?
**A.** 4.1 h

**Q.** What about the F ([2]; PO, 2 mg/kg, Tween 80/0.5% MC) of the same molecule?
**A.** 67%

**Q.** And the F ([2]; PO, 5 mg/kg, 20% PEG/24% HBCD)?
**A.** 79%
